From BindingDB's records for patent US10934285 (Novartis, 2021) come the findings set out here.

The target of the assay is T1, Tyrosine-protein phosphatase non-receptor type 11 (Homo sapiens, UniProt Q06124).
T1 sequence (Q06124 whole entry): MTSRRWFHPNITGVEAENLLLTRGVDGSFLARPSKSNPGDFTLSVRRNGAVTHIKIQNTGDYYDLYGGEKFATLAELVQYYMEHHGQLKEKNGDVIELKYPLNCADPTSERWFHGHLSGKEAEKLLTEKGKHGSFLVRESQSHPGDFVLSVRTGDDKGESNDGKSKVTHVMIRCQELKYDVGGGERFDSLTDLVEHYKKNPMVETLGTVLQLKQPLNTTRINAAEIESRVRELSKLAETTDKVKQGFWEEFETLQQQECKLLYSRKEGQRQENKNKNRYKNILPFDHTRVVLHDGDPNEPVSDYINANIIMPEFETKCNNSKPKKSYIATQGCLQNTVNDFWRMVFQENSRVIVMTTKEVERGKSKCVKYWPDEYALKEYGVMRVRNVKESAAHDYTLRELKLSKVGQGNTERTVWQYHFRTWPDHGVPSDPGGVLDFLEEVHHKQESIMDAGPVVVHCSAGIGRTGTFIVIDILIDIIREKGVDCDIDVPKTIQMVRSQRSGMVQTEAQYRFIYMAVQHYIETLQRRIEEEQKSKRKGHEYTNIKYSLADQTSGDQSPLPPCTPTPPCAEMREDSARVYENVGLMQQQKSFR
Nature of the assay: Inhibition Assay. How it is done: After 30-60 minutes incubation at 25° C., the surrogate substrate DiFMUP (Invitrogen, cat #D6567) was added to the reaction and incubated at 25° C. for 30 minutes. The reaction was then quenched by the addition of 5 μl of a 160 μM solution of bpV(Phen) (Enzo Life Sciences cat #ALX-270-204). The fluorescence signal was monitored using a microplate reader (Envision, Perki-Elmer) using excitation and emission wavelengths of 340 nm and 450 nm, respectively. The inhibitor dose response curves were analyzed using normalized IC50 regression curve fitting with control based normalization.

In turn, `CN(c1cnc(Sc2cccc(NC(=O)c3c(O)nc4n(c3=O)CCCC4)c2Cl)c(N)n1)C1CC(C)(C)NC(C)(C)C1` [US10934285, Example 21] returned a half-inhibitory concentration (IC50) of 5380 nM. As for `CC1(CN)CCN(c2nnc(Sc3cccc(NC(=O)c4c(O)n5c(ccc6ccccc65)nc4=O)c3Cl)c(N)n2)CC1` [US10934285, Example 38], the figure is 15 nM.

One may read the IC50 as the concentration that inhibits the measured activity by half. A low value points to greater potency.
